Test results taken from ChEMBL document CHEMBL3507680, “University of Dundee, Gates Library screen for HepG2 cell viability”.

Assay: Human HepG2 cell viability assay in 384 well format
Assay type: toxicity, cell-based
Design: dose 125 nL, time 70.5 hour; concentration not given beside the values
Conditions: HepG2 cells, read-out: Inhibition

| SMILES | cytotoxicity at 70.5 h |
| --- | --- |
| COc1ccc2c(c1)C(=O)NC1(CC2)CCN(Cc2ccc(F)cc2)C1 (configuration not stated) | 5.75% |
| COc1ccc2c(c1)C(=O)NC1(CC2)CCN(Cc2ccccn2)C1 (configuration not stated) | -1% |
| CN(C1CCCN(c2ccccn2)C1)S(=O)(=O)N1CCOCC1 (configuration not stated) | -2.35% |
| CC(C)N1CCOC(c2cc(CCO)[nH]n2)C1 (configuration not stated) | -1.76% |
| C[C@@]1(O)CCN(C2CCOCC2)C[C@H]1n1ccc(=O)[nH]c1=O | -3.9% |
| CC(C)n1nnc(CC(=O)NCC2(c3ccccc3F)CCCC2)n1 | -10.2% |
| Cc1cc(C)nc(Nc2cc(C)nc(C3CCN(C(C)C)C3)n2)n1 (configuration not stated) | -5.15% |
| Cc1ncsc1-c1nnc(C2CCCN2C(=O)CCn2cccn2)o1 (configuration not stated) | -9.26% |
| CSCC[C@@H]1CN2CCC[C@H]2CN1Cc1coc2ccc(Cl)cc2c1=O | -5.47% |
| CS(=O)(=O)NCC(=O)NC1CCCN(c2ccccn2)C1 (configuration not stated) | -9.78% |
| CNC(=O)c1sc2ccccc2c1CC1CCCCN1Cc1ncc[nH]1 (configuration not stated) | -7.25% |
| O=C1CN(C(=O)C2CN(c3cccc(F)c3)CCO2)CCN1 (configuration not stated) | -5.92% |
| Cc1ccc2[nH]c(C3CCN(C)CC3)nc2c1 | 12.7% |
| CCCN1CCCC(O)(c2nc(C)c(COc3ccccc3)s2)CC1 (configuration not stated) | 13.4% |
| CS(=O)(=O)N1CCCC(Cc2cnc(Br)cn2)C1 (configuration not stated) | 22.6% |
| CNc1cc(C(=O)N2CCOC(C(=O)NC3CCCC3)C2)ccn1 (configuration not stated) | -2.84% |
| CN1CCCC(c2cncc(-c3cccc(C(F)(F)F)c3)n2)C1 (configuration not stated) | -8.63% |
| Cc1cc(C)nc(N2CCC(c3c(C(N)=O)sc4ccccc34)C2)n1 (configuration not stated) | -3.24% |
| CS(=O)(=O)N1C[C@@H](O)[C@H](N2CCN(c3ccccc3)CC2)C1 | 22.6% |
| Cc1nnc(C2CCN(c3ncccn3)CC2)o1 | -15% |
| NC(=O)c1ccc(C2CN(Cc3ccc(F)cc3)CCO2)nc1 (configuration not stated) | 27.6% |
| c1ccc(Oc2nccnc2C2CCN(C3CCOCC3)CC2)cc1 | -7.7% |
| Cc1cc(C2CCCN(S(=O)(=O)N(C)C)C2)ccn1 (configuration not stated) | 23.8% |
| CCCNC(=O)Nc1ncc(-c2cccnc2)s1 | -9.71% |

| SMILES | cytotoxicity at 70.5 h |
| --- | --- |
| CC(C)NC(=O)Nc1ncc(-c2cccnc2)s1 | -4.04% |
| CNC(=O)c1cn[nH]c1C1CCCN1c1nc(C)cc(C)n1 (configuration not stated) | -3.88% |
| Cc1cnc(CC2COCCN(C(=O)CN3CCOCC3)C2)cn1 (configuration not stated) | -4.65% |
| COc1ccc(CC2CN(Cc3cncn3C)CCO2)cc1 (configuration not stated) | -9.57% |
| Cc1nc(N)cc(C2CN(C(=O)c3cscn3)CCO2)n1 (configuration not stated) | -10.9% |
| O=C(O)c1ccccc1-c1cnc(Cn2c(=O)cc[nH]c2=O)s1 | -6.43% |
| Cc1cc(C)nc(C2CCN(C3CCCCC3)C2)n1 (configuration not stated) | -5.66% |
| CC(=O)N[C@@H]1CN(C(=O)Cc2coc3cc(C)ccc23)C[C@H]1O | -2.72% |
| CCn1ncc(C(=O)NCCc2nc(-c3cccnc3)n[nH]2)c1C | -3.1% |
| CCn1ncc(C(=O)NCCc2nc(-c3ccncc3)n[nH]2)c1C | -7.04% |
| CC(C)CC(NC(=O)c1cccs1)c1nc2cccnc2n1C (configuration not stated) | -5.14% |
| CC[C@H](Cn1ncc2ccccc2c1=O)NC(=O)c1cnc(C)cn1 | -12.4% |
| CC[C@H](Cn1ncc2ccccc2c1=O)NC(=O)c1ccccn1 | -7.7% |
| CC[C@@H](Cn1ncc2ccccc2c1=O)NC(=O)c1cnc(C)cn1 | -6.57% |
| CNc1ncc(CN(C)CCN2CCCCC2)cn1 | 36.6% |
| CC(C(=O)N(Cc1ccc(C#N)cc1)CC(F)(F)F)S(C)(=O)=O (configuration not stated) | -10.1% |
| Cc1nc(CNC(=O)NC2CC(C)(C)OC2(C)C)sc1C (configuration not stated) | -9.18% |
| Cc1ccc(-c2nc(CC(=O)NCC3CCCN(C(C)C)C3)cs2)o1 (configuration not stated) | 11.1% |
| O=C(CCC(=O)N1CCc2ccccc2C1)c1cccs1 | 2.72% |
| COCc1nc(-c2ccc(S(=O)(=O)N3CCCC3)cc2)cs1 | -3.85% |
| CC(c1ccccc1F)N(CC(N)=O)C1CC1 (configuration not stated) | -4.03% |
| CCC(=O)c1ccc(OCC(=O)NCC2CCCO2)cc1 (configuration not stated) | 0.0654% |
| CN(Cc1ccc(F)c(F)c1)C(=O)CCc1nc(-c2nnc[nH]2)no1 | -4.47% |
| CCOCCNC(=O)c1cnc(Sc2nccn2C)c(Cl)c1 | 2.36% |

| SMILES | cytotoxicity at 70.5 h |
| --- | --- |
| COCCN1CCC(CNc2nc3ccccc3o2)CC1 | 1.47% |
| COCCN1CCC(CNc2cnc3ccccc3n2)CC1 | -1.83% |
| CN1CCN(C(=O)c2cn(-c3ccc(C(F)(F)F)cn3)nn2)CC1 | -6.96% |
| CCN(CC)C(=O)c1cnc(Sc2nccn2C)c(Cl)c1 | -3.32% |
| CCc1ccc2c(c1)C(CCNC(=O)Cc1ccc(F)cc1)C(=O)N2 (configuration not stated) | 11.8% |
| CCc1ccc2c(c1)C(CCNC(=O)Cc1cccc(F)c1)C(=O)N2 (configuration not stated) | -4.81% |
| CC(c1ccccc1Cl)N(C(=O)CSCC(N)=O)C1CC1 (configuration not stated) | 12.5% |
| CN(CC1CC1)C(=O)c1cc2c(c(S(N)(=O)=O)c1)CCC2 | 2.25% |
| CCOc1cc(CNC(=O)NC2CC=CC2)ccc1OC(F)F | -5.65% |
| Cc1ccc(-n2cc(C)cn2)c(NC(=O)NC2(C)CCOC2)c1 (configuration not stated) | -2.69% |
| CCOc1cccc(CNC(=O)NC2CC=CC2)c1OC(F)F | 0.101% |
| Cc1ccc(Cl)c(NC(=O)NC2(C)CCOC2)c1 (configuration not stated) | -5.5% |
| Cc1ccc(-n2nnnc2SCN2CCCCC2=O)cc1C | -3.89% |
| CCc1ccc(C(=O)N2CCC(N(C)C(=O)OC(C)(C)C)C2)o1 (configuration not stated) | 0.0812% |
| CN(Cc1ccccc1)C(=O)c1cc2c(c(S(N)(=O)=O)c1)CCC2 | 30.7% |
| Cc1ccc(CN(C)C(=O)c2cc3c(c(S(N)(=O)=O)c2)CCC3)o1 | -1.72% |
| NS(=O)(=O)c1ccc(NCc2ccccc2F)cc1C(F)(F)F | 1.33% |
| Cc1cc(CN2CCN(Cc3ccc(C#N)cc3F)CC2)no1 | 1.27% |
| COc1ccc(NC(=O)N2CCN(CCSc3ccccc3)CC2)cc1 | 3.81% |
| Cc1cc(C2CCCN2C(=O)c2csc(-c3cnn(C)c3)n2)on1 (configuration not stated) | 2.44% |
| CCn1cc(NC(=O)N2CCN(C(=O)Oc3ccccc3)CC2)cn1 | -4.12% |
| Cc1cc(C2CCCN2C(=O)Nc2cn[nH]c2)on1 (configuration not stated) | -4.06% |
| CS(=O)(=O)c1ccccc1-n1cc(NC(=O)CC(F)(F)F)cn1 | -4.54% |
| CC(C)(C)CC(=O)Nc1cnn(-c2ccccc2S(C)(=O)=O)c1 | -5.49% |

| SMILES | cytotoxicity at 70.5 h |
| --- | --- |
| CC(C)(C)C(=O)Nc1cnn(-c2ccccc2S(C)(=O)=O)c1 | -9.09% |
| CCc1ccc(S(=O)(=O)Nc2ccncc2)s1 | -5.81% |
| Cc1c(C[S+](C)[O-])cccc1NC(=O)c1cc(Cl)ccn1 (configuration not stated) | -2.39% |
| CN1CCN(C2CCN(CC(O)c3ccccc3F)CC2)C1=O (configuration not stated) | 16.4% |
| N#Cc1cnc2c(F)cc(F)cc2c1NC1CCN(CC(N)=O)CC1 | -5.14% |
| CCc1ccc(S(=O)(=O)Nc2cnccc2C)s1 | -4.13% |
| CCS(=O)(=O)N1CCN(C(C)(C)CO)CC1 | -3.71% |
| CCn1c(C)cc(C(=O)Nc2ccccc2CN(C)C(C)=O)c1C | -9.11% |
| CN(CC(C)(CO)CO)C(=O)Nc1cc(Cl)cc(Cl)c1 | -4.43% |
| CN(Cc1ccc(Br)c2cccnc12)S(C)(=O)=O | 12.8% |
| OCCN(CCO)Cc1ccc(Br)c2cccnc12 | -1.86% |
| CC(NCCCN1CCCC1=O)c1cc(Br)ccc1F (configuration not stated) | -5.24% |
| Cc1cc(CN2CCN(Cc3ccc(C#N)cc3OC(F)F)CC2)no1 | 18.7% |
| CCN(CCO)Cc1ccc(Br)c2cccnc12 | -1.88% |
| CC(NCC1(N(C)C)CCOCC1)c1ccc(SC(F)F)cc1 (configuration not stated) | 2.6% |
| CN(Cc1nnc(C2CC2)o1)Cc1ccccc1N1CCOCC1 | -4.09% |
| COCCCS(=O)(=O)N1CCN(C(C)(C)CO)CC1 | -7.76% |
| Cc1ccc(S(=O)(=O)NC(CO)CC(C)C)cc1N(C)C (configuration not stated) | -3.97% |
| CC(C)Nc1nnc(SCc2nnc(C(C)(C)C)o2)s1 | -6.2% |
| CN(Cc1c(F)cccc1Cl)C(=O)Cn1cnc(C#N)n1 | -7.04% |
| Cc1ccc(OCC(=O)Nc2ccc(S(C)(=O)=O)cc2)cc1C | 14% |
| O=C(NCCN1CCOCC1)c1cnc(-c2ccccc2F)s1 | -3.87% |
| CCc1nnc2n1CCN(C(=O)C1CCC(n3cccc3)CC1)C2 (configuration not stated) | -6.9% |
| Cn1ccc(C(=O)Nc2nccn2Cc2ccccc2Cl)cc1=O | -7.59% |

| SMILES | cytotoxicity at 70.5 h |
| --- | --- |
| Cc1nccn1-c1ccc(NS(=O)(=O)c2cccnc2)cn1 | -1.79% |
| CC(Cc1ccccc1F)C(=O)Nc1ccc(OCCC(N)=O)cc1 (configuration not stated) | -3.92% |
| CS(=O)(=O)CCC(=O)Nc1nccn1Cc1ccccc1Cl | 0.444% |
| CCN(CC)S(=O)(=O)CC(=O)N1CCc2ccc(C)cc21 | -7.29% |
| N#Cc1ccc(F)c(CNc2ccc(F)cc2OCCO)c1 | 16.6% |
| CC(C)N1CCC(CNC(=O)CCc2cc(F)ccc2F)C1 (configuration not stated) | 14.8% |
| Cc1cc(CN(C2CC2)C(C)C(C)C)on1 (configuration not stated) | 1.68% |
| COCCN(CCOC)C(=O)c1ccn(-c2ccccc2Cl)n1 | 17.5% |
| Cc1nc(CN2CCCN(C(=O)c3cccn3C)CC2)cs1 | 1.17% |
| COc1cc2c(nn1)CCN(Cc1nnc(Cc3ccccc3)o1)C2 | -3.6% |
| COC(=O)C(C)N(Cc1cc(C)on1)C1CC1 (configuration not stated) | -5.22% |
| CNC(=O)N1CCOCC1c1c(C)nn(C)c1C (configuration not stated) | 2.35% |
| Cc1noc(C)c1C(=O)N(C)C(C)c1ccncc1 (configuration not stated) | -5.68% |
| O=C(NCC1CCOC1)c1cc(-c2ccc(F)cc2)[nH]n1 (configuration not stated) | -10.8% |
| COc1cccc2[nH]c(C(=O)N3CCNCC3C(N)=O)cc12 (configuration not stated) | 10.8% |
| Nc1ccc(-c2cnc(C3CCCN3)cn2)cn1 (configuration not stated) | -8.2% |
| CS(=O)(=O)c1ccc(-c2cnc(C3CCCN3)cn2)cc1 (configuration not stated) | -11.3% |
| Cc1nc(-c2ccccc2)cc(C2CCNCC2)n1 | 7.58% |
| CC(CN1CCOCC1)n1cncc1-c1ccc2c(c1)CCCN2C (configuration not stated) | -10.1% |
| CC(=O)NC1CCN(c2cc(C3CCNCC3)ccn2)CC1 | -2.92% |
| CC(=O)N1CCC(N2CCC(c3nc(C)cc(C)n3)C2)CC1 (configuration not stated) | -3.99% |
